These results are taken from patent publication US20050158805A1, “Toxicity test” (priority 2002, published 2005).

One data set deals with liver spheroids. Kind of data set: Spheroid cell spreading inhibition test (SCSIT) using fresh liver spheroids. It is filed as cell-based, male Wistar rats. The note with it: for SCSIT result (spheroid cell spreading inhibition): fresh liver spheroids, batches A-C; for concentrations at which liver spheroid cell spreading is inhibited: liver spheroids, read from tables. On the procedure:
(§1) The inventors have developed a cell spreading inhibition test based on the observed spheroid cell growth, or “spreading” of cells in spheroids when the spheroids are grown on a suitable surface and at static state i.e. without shaking. […] This inhibition of cell spreading provides an indicator of toxicity.
(§2) According to a first aspect of the invention, there is provided an in vitro toxicity assay comprising: • a) exposing a spheroid sample to a selected concentration of a compound to be assayed; • b) incubating the spheroid sample for a suitable period of time; and • c) observing if spheroid cell spreading inhibition takes place. […] However, if there is observable cell spreading from one or more of the spheroids in the sample, this is a cell spreading inhibition negative (−) result.
(§3) In the following examples, fresh liver or HepG2 spheroids were used.
Liver spheroids were prepared from the liver of male Wistar rats by a two-step collagenase perfusion method described by Seglen P.O. ((1976). Preparation of isolated rat liver cells. Methods Cell. Biol. 13, 29-38) and modified by Lazar, A.; Peshwa, M. V., Wu, F. J., Chi, C. M., Cerra, F. B., and Hu, W. S. (1995). Extended liver-specific functions of procine hepatocyte spheroids entrapped in collagen gel. In Vitro Cell Biol Anim. 31, 340-346). Viability of the isolated liver cells was determined by tyrpan blue dye exclusion i.e. an aliquot of isolated liver cells was mixed with an equal volume of trypan blue dye (1.0% w/v in isotonic saline) and incubated at room temperature for a minimum period of 5 minutes. Only isolated liver cell preparations with viability above 80% were used to prepare liver spheroids. The cell suspension was diluted with culture medium (hepatocyte medium supplemented with 5% FCS, […] L-glutamine, 2 ng/ml insulin, 100 U/ml penicillin and 100 μg/ml streptomycin sulfate) to give a cell density of 5×10^5 cells/ml. The diluted cell suspension was dispersed into 6-well plates, 3 ml/well. The plates were incubated at 37° C., in a 5% CO2 incubator on a gyrotatory shaker (New Brunswick) at an initial rotation speed of 85 rpm for the first 24 hr and 77 rpm thereafter. The plates were rotated at this speed for the duration of the study (up to 45 days, but typically 2-10 days). 1.5 ml of old medium was replaced with 2.0 ml fresh medium for each well every other day. Media exchange was carried out over the duration of the study (up to 45 days, but typically 2-10 days).
(§4) 3 to 5 freshly prepared spheroids were transferred into each well of a 24 well plate and exposed to galactosamine at various concentrations as detailed in Tables 1 and 2. Two wells were used for each concentration of galactosamine. The spheroids were incubated in Hepatocyte medium (Sigma) supplemented with 10-15% FCS, […] L-glutamine, 100 U/ml penicillin and 100 μg/ml streptomycim sulfate, and placed in a 5% CO2 incubator at 37° C. and the effects on spheroid cell spreading inhibition observed after 48 hours exposure of the cells to galactosamine: […]

A further data set relates to HepG2 spheroids. Kind of data set: Spheroid cell spreading inhibition test (SCSIT) using fresh HepG2 spheroids. The format is cell-based, Human. The note with it: for SCSIT result (spheroid cell spreading inhibition): fresh HepG2 spheroids, batches A-C; for concentrations at which HepG2 spheroid cell spreading is inhibited: HepG2 spheroids, read from tables. On the procedure: as §1, §2, §3
HepG2 cell line (Human Hepatocyte Carinomal cells, from ECACC) was cultured as a monolayer in a 75 cm^2 flask at an initial density of 10^2 cells/cm^2 in a culture medium containing MEM (Sigma) supplemented with 10% FBS, 200 nM L-Glutamine, 100 U/ml pencillin and 100 μg/ml streptomycin (GibcoBril). HepG2 cells of confluent flasks were detached by trypsin and pooled together to be counted by trypan blue dye excretion. The cell suspension was diluted with culture medium (MEM supplemented with 5% FBS, […] L-glutamine, 100 U/ml penicillin and 100 μg/ml streptomycin) to give 1×10^6 cell/ml cell suspension. The cell suspension was plated into 6-well plates, 3 ml/well. The plate was placed on a gyrotatory shaker (New Brunswick) at 83 rpm in a 37° C. CO2 incubator for the first 24 h, and then the rotation speed reduced to 77 rpm. After 6 DIV culture, spheroids were ready for use.
as §4

`O=C(O)Cc1ccccc1Nc1c(Cl)cccc1Cl` [diclofenac]: the “SCSIT result (spheroid cell spreading inhibition)” value is recorded as “−” in the data set with liver spheroids (0.1 μM); “−” in the data set on liver spheroids (1 μM); “−” in the data set with liver spheroids (10 μM); “−” in the data set on liver spheroids (100 μM); “+” with liver spheroids (1000 μM); “−” in the data set on HepG2 spheroids (0.1 μM). In addition, the “SCSIT result (spheroid cell spreading inhibition)” value is “−” in the data set on HepG2 spheroids (1 μM), “−” with HepG2 spheroids (10 μM), “−” in the data set with HepG2 spheroids (100 μM) and “+” with HepG2 spheroids (1000 μM). The “spheroid cell spreading inhibition (FIG. 4A)” value in the data set on liver spheroids (liver spheroid, 100 μM, 48 hours after exposure) was “no spheroid cell spreading inhibition is observed”. In addition, the “spheroid cell spreading inhibition (FIG. 4B)” value in the data set on liver spheroids (liver spheroid, 1000 μM, 48 hours after exposure) is recorded as “spheroid cell spreading was inhibited”. For the same compound, the “concentrations at which liver spheroid cell spreading is inhibited” value with liver spheroids is at least 1000 µM. In addition, the “concentrations at which HepG2 spheroid cell spreading is inhibited” value with HepG2 spheroids was at least 1000 µM.

For `N[C@H]1C(O)O[C@H](CO)[C@H](O)[C@@H]1O` (stereo partly drawn) [galactosamine], the “SCSIT result (spheroid cell spreading inhibition)” value with liver spheroids (4 mM, 48 hours exposure) was “−”; in the data set with liver spheroids (10 mM, 48 hours exposure), “−”; with liver spheroids (16 mM, 48 hours exposure), “−”; in the data set with liver spheroids (20 mM, 48 hours exposure), “+”; in the data set on liver spheroids (40 mM, 48 hours exposure), “+”; with HepG2 spheroids (4 mM, 48 hours exposure), “−”. The “SCSIT result (spheroid cell spreading inhibition)” value in the data set with HepG2 spheroids (10 mM, 48 hours exposure) was “−”; with HepG2 spheroids (16 mM, 48 hours exposure) it was “+”; in the data set on HepG2 spheroids (20 mM, 48 hours exposure) it was “+”; in the data set on HepG2 spheroids (40 mM, 48 hours exposure), “+”. For the same compound, the “spheroid cell spreading inhibition (FIG. 2B)” value in the data set on liver spheroids (liver spheroid, 16 mM, 48 hours after exposure) is given as “no spheroid cell spreading inhibition is observed”. The “spheroid cell spreading inhibition (FIG. 2C)” value in the data set with liver spheroids (liver spheroid, 40 mM, 48 hours after exposure) is on record as “spheroid cell spreading was inhibited”. Besides, in the data set with liver spheroids, the “concentrations at which liver spheroid cell spreading is inhibited” value is at least 20000 µM. For the same compound, the “concentrations at which HepG2 spheroid cell spreading is inhibited” value in the data set on HepG2 spheroids was at least 16000 µM.

With `CC(=O)Nc1ccc(O)cc1` [paracetamol], the “SCSIT result (spheroid cell spreading inhibition)” value is “−” in the data set with liver spheroids (5 μM); “−” with liver spheroids (50 μM); “−” in the data set with liver spheroids (500 μM); “−” with liver spheroids (5 mM); “+” in the data set on liver spheroids (50 mM); “−” with HepG2 spheroids (5 μM). Also, the “SCSIT result (spheroid cell spreading inhibition)” value in the data set on HepG2 spheroids (50 μM) is given as “−”; in the data set on HepG2 spheroids (500 μM), “−”; in the data set on HepG2 spheroids (5 mM), “−”; in the data set with HepG2 spheroids (50 mM), “+”. In addition, the “spheroid cell spreading inhibition (FIG. 5A)” value with liver spheroids (liver spheroid, 5 mM, 48 hours after exposure) is recorded as “no spheroid cell spreading inhibition is observed”. Further, the “spheroid cell spreading inhibition (FIG. 5B)” value with liver spheroids (liver spheroid, 50 mM, 48 hours after exposure) is given as “spheroid cell spreading was inhibited”. Also, in the data set on liver spheroids, the “concentrations at which liver spheroid cell spreading is inhibited” value was at least 50000 µM. In addition, in the data set on HepG2 spheroids, the “concentrations at which HepG2 spheroid cell spreading is inhibited” value was at least 50000 µM.
